Measured values as given in publication PMC5224920, “Assessing the mechanism and therapeutic potential of modulators of the human Mediator complex-associated protein kinases” (eLife, 2016).

System: 12 single or co-culture in vitro tissue models of primary cells
Experiment: Culture/co-culture cell model panel, extracellular biomarkers (DiscoveRx); as to CCL2/MCP-1: reference of the scale not given here; as to CD141/Thrombomodulin: reference of the scale not given here; as to CD142/Tissue Factor: reference of the scale not given here; as to CXCL8/IL-8: reference of the scale not given here; as to CXCL9/MIG: reference of the scale not given here; as to M-CSF: reference of the scale not given here; as to Proliferation: reference of the scale not given here; as to SRB: reference of the scale not given here
Type: cell-based, human

SMILES: Cn1ncc2cc(-c3cnc(N)c(Cl)c3N3CCC4(CCNC4=O)CC3)ccc21 [CMPD 3]
- CCL2/MCP-1 (3C, 1.00E0 nM): 0.030
- CD54/ICAM-1 (3C, 1.00E0 nM): -0.007
- CD87/uPAR (3C, 1.00E0 nM): -0.138
- CD106/VCAM-1 (3C, 1.00E0 nM): 0.033
- CD141/Thrombomodulin (3C, 1.00E0 nM): 0.044
- CD142/Tissue Factor (3C, 1.00E0 nM): 0.040
- CXCL8/IL-8 (3C, 1.00E0 nM): 0.00749
- CXCL9/MIG (3C, 1.00E0 nM): 0.008
- HLA-DR (3C, 1.00E0 nM): -0.007
- Proliferation (3C, 1.00E0 nM): -0.065
- SRB (3C, 1.00E0 nM): -0.049
- CCL2/MCP-1 (3C, 1.00E1 nM): -0.022
- CD54/ICAM-1 (3C, 1.00E1 nM): -0.036
- CD87/uPAR (3C, 1.00E1 nM): -0.247
- CD106/VCAM-1 (3C, 1.00E1 nM): 0.039
- CD141/Thrombomodulin (3C, 1.00E1 nM): 0.072
- CD142/Tissue Factor (3C, 1.00E1 nM): 0.133
- CXCL8/IL-8 (3C, 1.00E1 nM): -0.095
- CXCL9/MIG (3C, 1.00E1 nM): -0.00373
- HLA-DR (3C, 1.00E1 nM): -0.076
- Proliferation (3C, 1.00E1 nM): -0.054
- SRB (3C, 1.00E1 nM): -0.076
- CCL2/MCP-1 (3C, 1.00E2 nM): -0.124
- CD54/ICAM-1 (3C, 1.00E2 nM): -0.048
- CD87/uPAR (3C, 1.00E2 nM): -0.349
- CD106/VCAM-1 (3C, 1.00E2 nM): 0.034
- CD141/Thrombomodulin (3C, 1.00E2 nM): 0.056
- CD142/Tissue Factor (3C, 1.00E2 nM): 0.139
- CXCL8/IL-8 (3C, 1.00E2 nM): -0.180
- CXCL9/MIG (3C, 1.00E2 nM): -0.007
- HLA-DR (3C, 1.00E2 nM): -0.144
- Proliferation (3C, 1.00E2 nM): -0.088
- SRB (3C, 1.00E2 nM): -0.094
- CCL2/MCP-1 (3C, 1.00E3 nM): -0.168
- CD54/ICAM-1 (3C, 1.00E3 nM): -0.045
- CD87/uPAR (3C, 1.00E3 nM): -0.370
- CD106/VCAM-1 (3C, 1.00E3 nM): 0.037
- CD141/Thrombomodulin (3C, 1.00E3 nM): 0.050
- CD142/Tissue Factor (3C, 1.00E3 nM): 0.150
- CXCL8/IL-8 (3C, 1.00E3 nM): -0.301
- CXCL9/MIG (3C, 1.00E3 nM): -0.026
- HLA-DR (3C, 1.00E3 nM): -0.148
- Proliferation (3C, 1.00E3 nM): -0.102
- SRB (3C, 1.00E3 nM): -0.099
- CCL2/MCP-1 (3C, 1.00E4 nM): -0.253
- CD54/ICAM-1 (3C, 1.00E4 nM): -0.033
- CD87/uPAR (3C, 1.00E4 nM): -0.407
- CD106/VCAM-1 (3C, 1.00E4 nM): 0.036
- CD141/Thrombomodulin (3C, 1.00E4 nM): 0.036
- CD142/Tissue Factor (3C, 1.00E4 nM): 0.224
- CXCL8/IL-8 (3C, 1.00E4 nM): -0.302
- CXCL9/MIG (3C, 1.00E4 nM): -0.020
- HLA-DR (3C, 1.00E4 nM): -0.278
- Proliferation (3C, 1.00E4 nM): -0.404
- SRB (3C, 1.00E4 nM): -0.222
- CCL2/MCP-1 (/HDF3CT, 1.00E0 nM): -0.010
- CD54/ICAM-1 (/HDF3CT, 1.00E0 nM): -0.008
- CD106/VCAM-1 (/HDF3CT, 1.00E0 nM): 0.026
- CXCL8/IL-8 (/HDF3CT, 1.00E0 nM): -0.039
- CXCL9/MIG (/HDF3CT, 1.00E0 nM): 0.020
- CXCL10/IP-10 (/HDF3CT, 1.00E0 nM): 0.003
- Collagen I (/HDF3CT, 1.00E0 nM): 0.036
- M-CSF (/HDF3CT, 1.00E0 nM): 0.008
- MMP-1 (/HDF3CT, 1.00E0 nM): 0.097
- PAI-I (/HDF3CT, 1.00E0 nM): 0.039
- SRB (/HDF3CT, 1.00E0 nM): 0.007
- TIMP-2 (/HDF3CT, 1.00E0 nM): 0.070
- CCL2/MCP-1 (/HDF3CT, 1.00E1 nM): -0.048
- CD54/ICAM-1 (/HDF3CT, 1.00E1 nM): -0.062
- CD106/VCAM-1 (/HDF3CT, 1.00E1 nM): 0.0026
- CXCL8/IL-8 (/HDF3CT, 1.00E1 nM): -0.028
- CXCL9/MIG (/HDF3CT, 1.00E1 nM): 0.010
- CXCL10/IP-10 (/HDF3CT, 1.00E1 nM): 0.017
- Collagen I (/HDF3CT, 1.00E1 nM): 0.021
- M-CSF (/HDF3CT, 1.00E1 nM): -0.050
- MMP-1 (/HDF3CT, 1.00E1 nM): 0.095
- PAI-I (/HDF3CT, 1.00E1 nM): -0.027
- SRB (/HDF3CT, 1.00E1 nM): -0.007
- TIMP-2 (/HDF3CT, 1.00E1 nM): 0.045
- CCL2/MCP-1 (/HDF3CT, 1.00E2 nM): -0.069
- CD54/ICAM-1 (/HDF3CT, 1.00E2 nM): -0.067
- CD106/VCAM-1 (/HDF3CT, 1.00E2 nM): 0.015
- CXCL8/IL-8 (/HDF3CT, 1.00E2 nM): -0.099
- CXCL9/MIG (/HDF3CT, 1.00E2 nM): -0.022
- CXCL10/IP-10 (/HDF3CT, 1.00E2 nM): 0.012
- Collagen I (/HDF3CT, 1.00E2 nM): 0.00367
- M-CSF (/HDF3CT, 1.00E2 nM): -0.024
- MMP-1 (/HDF3CT, 1.00E2 nM): 0.086
- PAI-I (/HDF3CT, 1.00E2 nM): -0.074
- SRB (/HDF3CT, 1.00E2 nM): -0.023
- TIMP-2 (/HDF3CT, 1.00E2 nM): 0.070
- CCL2/MCP-1 (/HDF3CT, 1.00E3 nM): -0.111
- CD54/ICAM-1 (/HDF3CT, 1.00E3 nM): -0.061
- CD106/VCAM-1 (/HDF3CT, 1.00E3 nM): 0.021
- CXCL8/IL-8 (/HDF3CT, 1.00E3 nM): -0.189
- CXCL9/MIG (/HDF3CT, 1.00E3 nM): -0.040
- CXCL10/IP-10 (/HDF3CT, 1.00E3 nM): 0.00333
